Results taken from US6787530B1, “Use of pregnane-diones as analgesic agents” (priority 1996, dated 2004).
“Also recorded” adds a separate entry of the source.

Experiments:
rats [1] = test: Loss of righting reflex and loss of coordination in the rotarod test after intraperitoneal dosing
Description: Groups of 10 rats were examined for the duration of the loss of righting reflex and loss of coordination in the rotarod test and also for antinociceptive effects in the electrical current threshold test measured in the tail. […] Thus we were able to compare the duration of sedation and anaesthesia and quantity of antinociception following intraperitoneal administration of the neurosteroid mixture and also following the components of the mixture at the doses which were given when the combination was used.
We have gone on to test the ability for alphadolone to produce sedation. We have given doses up to […] intraperitoneally of alphadolone.

rats [2] = test: Sedation scoring (righting reflex, locomotion) after intravenous injection; assay type: in vivo, rat
Description: It is generally accepted in the literature that both alphaxalone and alphadolone are intravenous anaesthetics, i.e. when they are given intravenously, they produce sedation and unconsciousness to a level sufficient for surgery. […] Such data, although alluded to in the literature, is not stated clearly with scientific evidence. Thus, we performed the experiments described in Example 2. Rats were given an intravenous injection of alphadolone. All of the rats became unconscious and surgically anaesthetised within 5 seconds of the intravenous injection. […] Thus, it can be concluded that intravenous injection of alphadolone produces unconsciousness.
Four rats (wt 100 g) were given 0.25 ml injections of alphadolone solution (10 mg/ml; dissolved in 10% Cremophor EL), into the lateral tail vein. A stopwatch was used to time the following scoring of sedation every 15 seconds:
1—righting reflex but no spontaneous locomotion
2—spontaneous locomotion but uncoordinated
3—normal locomotion and exploratory behaviour: full recovery
They all recovered fully within 90 seconds of the drug administration.

[3] = tested on: patients scheduled for knee reconstruction surgery; test: Phase 1 study of oral alphadolone: side effects (sedation, nausea, respiratory depression, disorientation); assay type: in vivo, human
Method: The study consisted of two phases. The first phase was a dose escalation study. At any time during this phase as well as the second phase, if the patient was randomised to receive placebo then a capsule containing lactose was administered orally at the time of medication. If the patient was randomised to receive alphadolone then the first patient so randomised received 25 mg alphadolone acetate orally. The patient was monitored for efficacy of the medication and side effects. If there were no unacceptable side effects such as respiratory depression or severe sedation or disorientation then the next patient randomised to receive the active treatment received a higher dose. The dose escalation planned was in the order, 25, 50, 100, 250, 500 and 1000 mg. The original plan was to continue dose escalation until unacceptable side effects occurred and then to reduce the dose to go onto the next, second, phase of the study, a double-blind comparison of the dose just below the high dose that produced unacceptable side effects compared with placebo. However, the view of the Ethics Committee was that this was more appropriate to a drug company sponsored trial and they ordered that the trial should switch from the dose escalation phase to the comparison phase when there was clear evidence of efficacy.
No premedication was given. The patients were taken to the operating theatre and subjected to a standardised anaesthetic regime that consisted of a propofol induction followed by a propofol infusion and the muscle relaxant of the anaesthetist's preference The trachea was intubated and lungs ventilated with a mixture of nitrous oxide and oxygen. Morphine 1-2 mg intravenously was given as indicated by normal signs of depth of anaesthesia. The amount of morphine used in the operating theatre was recorded in the case record form. After the end of surgery, the muscle relaxant was reversed with atropine and neostigmine and the patient sent to recovery. In the recovery ward the patient was reintroduced to the patient controlled analgesia machine containing morphine to deliver a dose of 1 mg increments with a lock out time of 5 minutes. The patient spent approximately half an hour in recovery ward and was then sent to the ward. The following observations and measurements were made one hour before, half an hour before, and just before giving the test medication (placebo or alphadolone) orally with 100 ml of water. The observations were continued every half hour thereafter until six hours after the capsule had been given:
Sedation on a four point score none, mild, moderate, unseasonable;
Nausea score rating none, mild, moderate, severe vomiting;
Respiratory depression scores as
none—respiratory rate greater than 10 oxygen saturation greater than 95%
mild—respiratory rate great than 6 and less than 10 oxygen saturation greater than 95%
moderate—respiratory rate less than 6 but oxygen saturation greater than 95%
unreasonable—respiratory rate less than 6 and/or oxygen saturation less than 95%
Light-headedness scored from none (no dizziness), mild (light dizziness but no nystagmus), moderate (feels dizzy and has nystagmus), severe (very dizzy with nausea);
Slurred speech scored as none, mild, moderate, severe;
Presence of disorientation;
Gaze evoked nystagmus scored as none, mild (1-2 jerks), moderate (constant slow jerks), severe (fast jerks and feeling dizzy);
Lack of co-ordination with two tests (a) close eyes touch nose with finger (b) touch 1, 2, 3, 4 fingers in turn with thumb; classified as none (both tests accomplished), mild (both tests accomplished but slowly), moderate (one test achieved after two attempts), severe (failed both tests after two attempts at each).
The total number of 0's, 1's, 2's, 3's and 4's recorded during the six hours after capsule administration were totalled for the five placebo treated and seven alphadolone treated patients and entered into a contingency table (table 2).

[4] = Glaxo in-house experiments; cited from earlier work
Wistar rat = test: Electrical current threshold for pain (ECT) in the tail after intragastric dosing, pilot experiment; assay type: in vivo; settings: 150 mg suspended in 1% Cremophor EL, 99% saline, intragastrically; one rat approx. 200 g
Method: We performed a pilot experiment on one drug naive nale Wistar rat that weighed approximately 200 g. We measured the nociceptive (pain) threshold in the tail using electrical current as the noxious stimulus. We measured the electrical current threshold for pain (ECT) in the tail every five minutes until the readings stabilised. We then gave 150 mg alphadolone acetate suspended in 1% Cremophor EL, 99% saline, intragastrically.

mice = test: PAN LABS toxicity test; assay type: in vivo, mouse
Method: The experiments from our laboratory are supported by observations by an independent body, PAN LABS. A sample of alphadolone used in the above experiments in rats in our laboratory was sent to a commercial drug-testing house, called PAN LABS. They gave the drug to a number of preparations to look for toxicity effects as well as pharmacological effect. In one toxicity test performed at PAN LABS, doses of up to 300 mg per kg of alphadolone was given to mice.

[5] = six hours after capsule, 100, 250 and 500 mg orally, n = 7

## CC(=O)OCC(=O)[C@H]1CC[C@H]2[C@@H]3CC[C@H]4C[C@H](O)CC[C@]4(C)[C@H]3C(=O)C[C@]12C [alphadolone, 21-acetoxy-3alpha-hydroxy-5alpha-pregnane-11,20-dione]
Rats [1]; 0.1 to 100 mg/kg intraperitoneally, rats
  sedative effects: No sedative effects were observed
Rats [1]; doses up to 300 mg/kg intraperitoneally (b128 prints 300 mg/g), rats
  sedation, loss of coordination, abnormal behaviour: no sedative effects whatsoever; also recorded: no evidence of sedation or loss of coordination
Rats [1]; ip, Saffan 2 ml/kg, alphaxalone 18 mg/kg, alphadolone 6 mg/kg, groups of 10 rats
  sedation and anaesthesia (loss of righting reflex, loss of coordination in rotarod test): no sedation or loss of righting reflex
Rats [2]; 25 mg/kg intravenous (lateral tail vein), 10% Cremophor EL, four rats
  righting reflex / sedation: lost the righting reflex and were heavily sedated
Rats [2]; 25 mg/kg intravenous, four rats
  time to full recovery after drug administration: ≤ 90 s
Rats [2]; intravenous injection, rats
  time to unconsciousness and surgical anaesthesia after intravenous injection: ≤ 5 s
[3]; dose escalation, 25 to 500 mg orally, humans
  side effects: sedation, nausea, disorientation, respiratory depression: No sedation, nausea or disorientation or respiratory depression; also recorded: well tolerated up to a dose of 500 mg orally; also recorded: no sedation or disorientation whatsoever
[3]; n = 7 vs placebo n = 5, P=0.9459 nausea, P=0.8661 sedation
  nausea score and sedation score compared with placebo (chi-square): no significant difference
[3]; [5]
  Nausea score 0 (none), number of scores: 72
  Nausea score 1 (mild), number of scores: 10
  Nausea score 2 (moderate), number of scores: 1
  Sedation score 0 (none), number of scores: 20
  Sedation score 1 (mild), number of scores: 48
  Sedation score 2 (moderate), number of scores: 15
[4]
  intravenous anaesthetic potency relative to alphaxolone: one-third the potency
Wistar rat
  electrical current threshold for pain (ECT) in the tail: significant rise in tail pain thresholds
mice; 300 mg/kg, mice
  grip strength: mild decrease in grip strength; also recorded: slight decrease in grip strength
mice; doses of up to 300 mg per kg given to mice
  anaesthesia: did not produce anaesthesia
